Data taken from patent US9321785B2, “Methods for the treatment or prophylaxis of thrombosis or embolism” (IPCA Laboratories Limited, priority 2010, dated 2016).
Where two headings read alike, the source gives them in different places.

Tests used:
[1] = tested on: recurrent ischemic events / major bleeding events; settings: cited from earlier work
[2] = tested on: ADP induced platelet aggregation (platelet-rich plasma); assay: Measurement of platelet aggregation with ADP, ex vivo after oral administration; assay type: in vivo, rat; settings: 2 h before sampling, ADP 2.5 μM
Procedure: The platelet aggregation inhibiting activities and the antithrombotic activities of the compounds were studied in the rat by standard methods. The activity on the aggregation of plates induced by ADP or collagen was determined ex-vivo. […] The aggregating solutions used were: a 500 μM aqueous solution of ADP (final concentration 2.5 μM). The aggregation of the platelets was monitored as described by Born (Nature 194, p. 927 […]), which is incorporated herein by reference, using a Coultronics® aggregometer at a temperature of 37° C. and agitation of 900 rpm. For aggregation with ADP, the aggregometer generates a curve representing a platelet aggregation as measured by a change in optical density. The height of this curve is defined as the height of aggregation. […] The controls are without drug.

[3] = tested on: venous thrombus in vena cava; assay: Venous thrombosis on a screw thread (antithrombotic activity); assay type: in vivo, rat; settings: for % inhibition / Weight of thrombus: thrombus after 5 h
Source text: The antithrombotic activity has also been studied in the test of venous thrombosis on a screw thread described by Kumada T. et al. in Thromb. Res 18 p. 189 (1980). Female rats of the same type as those previously described, in groups of 10 animals, were anesthetized with diethyl ether and their vena cava was isolated after abdominal incision. […] The thrombi formed rapidly and five hours later, under pentobarbital anesthesia, the abdomen is reopened and ligatures are placed above and below the screw thread which is withdrawn after longitudinal incision of the vein and the isolated thrombus is weighed. […] The control is without drug.

[4] = rat; cited from earlier work
[5] = cited from earlier work
[6] = tested on: ADP induced platelet aggregation; settings: cited from earlier work; for Time until 50% inhibition of ADP induced platelet aggregation is reached: 5 μM ADP ex vivo, LTA
[7] = Activity of clopidogrel metabolite; settings: metabolite in the clopidogrel pathway
Source text: Thus, the influence that the patient's ability to metabolize has on efficacy is reduced.

[8] = patients at high risk of vascular events
[9] = combined with Aspirin therapy, patients with ACS

Structure (SMILES): CC(=O)Oc1ccccc1C(=O)O [Aspirin]
- Absolute risk increase (ARI), major bleeding events [1, 8]: about 0.5%
- Absolute risk reduction (ARR), recurrent ischemic events [1, 8]: about 2%
- Increase in the odds of major bleeding events [1, 8]: about 60%
- Reduction of the risk of recurrent ischemic events [1, 8]: 22%

Structure (SMILES): COC(=O)[C@H](c1ccccc1Cl)N1CCc2sccc2C1 [Clopidogrel bisulphate]
- inhibition at 12.5 mg/kg ([2]; Rattus norvegicus, Platelet, oral dose 12.5 mg/kg (base 9.813 mg/kg)): 82%
- inhibition at 25 mg/kg ([2]; Rattus norvegicus, Platelet, oral dose 25 mg/kg (base 19.225 mg/kg)): 89%
- % aggregation (height) ([2]; oral dose 12.5 mg/kg (base 9.813 mg/kg), control 103 ± 3): 19 ± 4%
- % aggregation (height) ([2]; oral dose 25 mg/kg (base 19.225 mg/kg), control 103 ± 3): 11 ± 1%
- % inhibition ([3]; dose 10 mg/kg (base 7.69 mg/kg)): 67%
- Weight of thrombus ([3]; dose 10 mg/kg (base 7.69 mg/kg), control 3.9 ± 0.3): 1.26 ± 0.19 mg
- % inhibition ([3]; dose 20 mg/kg (base 15.38 mg/kg)): 69%
- Weight of thrombus ([3]; dose 20 mg/kg (base 15.38 mg/kg), control 3.9 ± 0.3): 1.20 ± 0.13 mg

Structure (SMILES): COC(=O)[C@H](c1ccccc1Cl)N1CCc2sccc2C1 [Clopidogrel, (+)-(S)-methyl 2-(2-chlorophenyl)-2-(6,7-dihydrothieno[3,2-c]pyridin-5(4H)-yl)acetate]
- Lethal dose [4]: about 5000 mg per kg
- Fraction converted to clopidogrel acid in vivo [5]: 90%
- Absolute risk reduction (ARR), recurrent ischemic events [1, 9]: about 2.1%
- Further reduction of the risk of recurrent ischemic events [1, 9]: 20%
- Time until 50% inhibition of ADP induced platelet aggregation is reached ([6]; dose 600 mg): 2 h
- Inhibition of ADP induced platelet aggregation ([6]; dose 900 mg, 5 μM ADP): 60%
- Inhibition of platelet aggregation ([6]; dose 900 mg, 20 μM ADP ex vivo): less than 50%
- Time until 50% inhibition of ADP induced platelet aggregation is reached ([6]; loading dose 300 mg): 4 to 6 h

Structure (SMILES): O=C(O)[C@H](c1ccccc1Cl)N1CCc2sccc2C1 [Formula IV]
- Activity of the metabolite [7]: inactive

Structure (SMILES): COC(=O)[C@H](c1ccccc1Cl)N1CCC2SC(=O)C=C2C1 (stereo partly drawn) [Thiolactone, Methyl(S)-2(2-chlorophenyl)-2-(2,4,5,6,7,7a-hexahydrothieno[3,2-c]-5-pyridin-2-one)acetate]
- inhibition at 2.5 mg/kg ([2]; Rattus norvegicus, Platelet, oral dose 2.5 mg/kg (base 2.5 mg/kg)): 95%
- % aggregation (height) ([2]; oral dose 2.5 mg/kg (base 2.5 mg/kg), control 94 ± 1): 4 ± 2%
- Antithrombotic activity compared with clopidogrel ([3]; Table 2): superior to clopidogrel
- % inhibition ([3]; dose 12.5 mg/kg (base 12.5 mg/kg)): 76%
- Weight of thrombus ([3]; dose 12.5 mg/kg (base 12.5 mg/kg), control 4.18 ± 0.31): 1.18 ± 0.18 mg
